Active and inactive are the calls of the source. The rule behind the calls is not given here.
Experiments:
[1] = target: T1, Serine/threonine-protein kinase TBK1 (Homo sapiens) (UniProt Q9UHD2); test: Inhibition of TBK1 (unknown origin) at 50 nM by Z'LYTE screening method relative to control
T1 sequence (whole entry): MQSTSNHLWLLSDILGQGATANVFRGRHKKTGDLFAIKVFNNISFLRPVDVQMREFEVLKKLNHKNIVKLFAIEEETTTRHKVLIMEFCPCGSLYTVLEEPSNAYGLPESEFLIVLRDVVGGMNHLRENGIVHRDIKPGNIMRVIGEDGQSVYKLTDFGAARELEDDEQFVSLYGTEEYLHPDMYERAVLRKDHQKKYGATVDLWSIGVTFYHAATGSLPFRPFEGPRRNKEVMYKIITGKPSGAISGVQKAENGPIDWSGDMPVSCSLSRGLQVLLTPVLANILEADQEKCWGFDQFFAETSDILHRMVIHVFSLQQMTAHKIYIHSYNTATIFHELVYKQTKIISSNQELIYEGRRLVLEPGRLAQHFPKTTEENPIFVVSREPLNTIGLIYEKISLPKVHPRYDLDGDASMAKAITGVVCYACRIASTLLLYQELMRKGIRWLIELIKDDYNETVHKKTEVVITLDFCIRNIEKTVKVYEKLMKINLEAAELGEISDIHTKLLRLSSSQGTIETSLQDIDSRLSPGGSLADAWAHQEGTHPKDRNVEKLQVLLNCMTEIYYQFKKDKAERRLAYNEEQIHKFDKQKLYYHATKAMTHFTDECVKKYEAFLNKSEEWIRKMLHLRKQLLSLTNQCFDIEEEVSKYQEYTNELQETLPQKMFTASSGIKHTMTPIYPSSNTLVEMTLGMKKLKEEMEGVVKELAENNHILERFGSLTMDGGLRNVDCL

[2] = target: T2, Serine/threonine-protein kinase Chk1 (Homo sapiens) (UniProt O14757); test: Inhibition of CHK1 (unknown origin) at 50 nM by Z'LYTE screening method relative to control
T2 sequence (whole entry): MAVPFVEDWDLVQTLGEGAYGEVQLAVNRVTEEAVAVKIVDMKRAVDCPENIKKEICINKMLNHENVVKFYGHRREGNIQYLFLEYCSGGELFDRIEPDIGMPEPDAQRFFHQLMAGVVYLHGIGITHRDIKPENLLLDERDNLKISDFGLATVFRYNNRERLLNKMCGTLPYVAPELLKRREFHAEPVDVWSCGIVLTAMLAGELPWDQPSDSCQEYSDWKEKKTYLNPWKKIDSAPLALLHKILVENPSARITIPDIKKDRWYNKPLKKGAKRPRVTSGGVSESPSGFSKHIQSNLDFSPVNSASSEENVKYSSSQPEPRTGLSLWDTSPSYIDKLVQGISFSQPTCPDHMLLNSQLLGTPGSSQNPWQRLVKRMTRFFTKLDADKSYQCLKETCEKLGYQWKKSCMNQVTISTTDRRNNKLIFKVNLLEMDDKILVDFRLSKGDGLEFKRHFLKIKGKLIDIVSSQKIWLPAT

[3] = target: Calcium/calmodulin-dependent protein kinase type 1D (Homo sapiens) (UniProt Q8IU85); test: Inhibition of CAMK1 delta (unknown origin) at 50 nM by Z'LYTE screening method relative to control
Calcium/calmodulin-dependent protein kinase type 1D (Homo sapiens), sequence (Q8IU85 whole entry, looked up): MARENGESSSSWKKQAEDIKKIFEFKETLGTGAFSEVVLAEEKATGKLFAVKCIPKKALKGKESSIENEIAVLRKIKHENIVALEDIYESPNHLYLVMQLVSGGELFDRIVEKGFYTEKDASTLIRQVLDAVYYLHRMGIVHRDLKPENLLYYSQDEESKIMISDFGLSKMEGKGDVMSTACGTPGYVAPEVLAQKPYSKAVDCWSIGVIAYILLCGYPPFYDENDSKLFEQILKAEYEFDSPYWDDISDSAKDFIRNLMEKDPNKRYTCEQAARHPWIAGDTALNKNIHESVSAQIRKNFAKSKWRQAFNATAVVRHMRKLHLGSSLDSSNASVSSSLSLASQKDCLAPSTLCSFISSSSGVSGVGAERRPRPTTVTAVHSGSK

[4] = target: Platelet-derived growth factor receptor alpha (Homo sapiens) (UniProt P16234); test: Inhibition of PDGFRalpha (unknown origin) at 50 nM by Z'LYTE screening method relative to control
Platelet-derived growth factor receptor alpha (Homo sapiens), sequence (P16234 whole entry): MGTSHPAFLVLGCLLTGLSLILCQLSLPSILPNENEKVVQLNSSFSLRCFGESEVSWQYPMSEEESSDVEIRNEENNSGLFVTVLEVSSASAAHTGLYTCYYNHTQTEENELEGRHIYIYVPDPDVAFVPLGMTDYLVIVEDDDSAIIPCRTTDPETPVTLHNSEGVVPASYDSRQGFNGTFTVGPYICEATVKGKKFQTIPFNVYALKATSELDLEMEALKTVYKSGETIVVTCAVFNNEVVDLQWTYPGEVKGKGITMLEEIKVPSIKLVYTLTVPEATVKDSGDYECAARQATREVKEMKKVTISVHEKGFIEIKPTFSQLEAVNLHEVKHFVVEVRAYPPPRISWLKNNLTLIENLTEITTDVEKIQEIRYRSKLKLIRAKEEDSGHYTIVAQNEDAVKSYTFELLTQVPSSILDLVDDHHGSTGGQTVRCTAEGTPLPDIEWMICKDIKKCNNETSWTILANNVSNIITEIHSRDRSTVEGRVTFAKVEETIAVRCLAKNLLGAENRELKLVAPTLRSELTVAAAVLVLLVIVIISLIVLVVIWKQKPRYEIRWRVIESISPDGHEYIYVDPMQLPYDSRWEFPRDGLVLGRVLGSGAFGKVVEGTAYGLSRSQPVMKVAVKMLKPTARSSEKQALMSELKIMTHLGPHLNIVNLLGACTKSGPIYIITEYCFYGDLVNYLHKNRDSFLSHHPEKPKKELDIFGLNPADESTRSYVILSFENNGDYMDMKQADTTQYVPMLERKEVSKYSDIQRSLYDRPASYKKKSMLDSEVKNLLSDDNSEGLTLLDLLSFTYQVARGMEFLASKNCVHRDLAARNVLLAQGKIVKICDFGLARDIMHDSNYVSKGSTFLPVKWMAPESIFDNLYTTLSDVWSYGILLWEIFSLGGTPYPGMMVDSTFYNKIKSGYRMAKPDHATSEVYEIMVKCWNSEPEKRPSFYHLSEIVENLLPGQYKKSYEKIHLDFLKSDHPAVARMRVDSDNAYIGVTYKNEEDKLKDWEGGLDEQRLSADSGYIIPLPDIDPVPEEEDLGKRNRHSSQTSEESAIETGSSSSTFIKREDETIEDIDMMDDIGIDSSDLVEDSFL

[5] = target: Tyrosine-protein kinase Lck (Homo sapiens) (UniProt P06239); test: Inhibition of LCK (unknown origin) at 50 nM by Z'LYTE screening method relative to control
Tyrosine-protein kinase Lck (Homo sapiens), sequence (P06239 2-509 limits assumed): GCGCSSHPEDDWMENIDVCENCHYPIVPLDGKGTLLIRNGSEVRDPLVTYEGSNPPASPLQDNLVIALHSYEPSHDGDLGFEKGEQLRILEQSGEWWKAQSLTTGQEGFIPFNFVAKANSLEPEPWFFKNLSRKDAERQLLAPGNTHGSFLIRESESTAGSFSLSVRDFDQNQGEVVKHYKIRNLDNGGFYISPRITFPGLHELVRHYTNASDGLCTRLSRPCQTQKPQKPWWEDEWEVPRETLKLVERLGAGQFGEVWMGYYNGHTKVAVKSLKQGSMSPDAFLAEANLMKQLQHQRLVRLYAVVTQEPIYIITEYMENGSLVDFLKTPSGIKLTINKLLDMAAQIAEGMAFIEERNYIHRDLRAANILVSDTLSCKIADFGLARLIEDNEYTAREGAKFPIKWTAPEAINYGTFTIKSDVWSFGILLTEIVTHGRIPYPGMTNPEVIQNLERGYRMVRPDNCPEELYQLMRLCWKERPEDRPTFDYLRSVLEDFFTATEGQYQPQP

[6] = target: T3, Inhibitor of nuclear factor kappa-B kinase subunit beta (Homo sapiens) (UniProt O14920); test: Inhibition of IKKbeta (unknown origin) at 50 nM by Z'LYTE screening method relative to control
T3 sequence (whole entry): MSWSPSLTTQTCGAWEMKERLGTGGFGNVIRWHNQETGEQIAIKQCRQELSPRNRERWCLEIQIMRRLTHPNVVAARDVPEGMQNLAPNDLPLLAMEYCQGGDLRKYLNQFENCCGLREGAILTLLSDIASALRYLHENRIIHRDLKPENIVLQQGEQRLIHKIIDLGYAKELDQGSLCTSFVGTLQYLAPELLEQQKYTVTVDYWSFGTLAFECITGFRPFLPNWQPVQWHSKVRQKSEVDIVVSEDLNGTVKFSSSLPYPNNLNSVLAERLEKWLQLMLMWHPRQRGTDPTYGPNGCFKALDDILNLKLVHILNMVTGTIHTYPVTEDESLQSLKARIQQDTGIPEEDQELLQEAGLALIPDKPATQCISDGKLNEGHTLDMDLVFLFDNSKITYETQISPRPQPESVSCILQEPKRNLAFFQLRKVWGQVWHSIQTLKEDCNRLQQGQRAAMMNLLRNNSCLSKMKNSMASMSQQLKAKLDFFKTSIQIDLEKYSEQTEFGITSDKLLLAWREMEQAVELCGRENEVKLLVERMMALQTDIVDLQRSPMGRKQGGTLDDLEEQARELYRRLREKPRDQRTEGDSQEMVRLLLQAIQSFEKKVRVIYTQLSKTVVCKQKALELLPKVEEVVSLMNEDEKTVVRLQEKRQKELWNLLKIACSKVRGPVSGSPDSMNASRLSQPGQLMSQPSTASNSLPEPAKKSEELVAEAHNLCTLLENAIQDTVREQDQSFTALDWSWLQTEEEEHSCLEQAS

[7] = target: Serine/threonine-protein kinase B-raf (Homo sapiens) (UniProt P15056); test: Inhibition of BRaf (unknown origin) at 50 nM by Z'LYTE screening method relative to control
Serine/threonine-protein kinase B-raf (Homo sapiens), sequence (P15056 whole entry): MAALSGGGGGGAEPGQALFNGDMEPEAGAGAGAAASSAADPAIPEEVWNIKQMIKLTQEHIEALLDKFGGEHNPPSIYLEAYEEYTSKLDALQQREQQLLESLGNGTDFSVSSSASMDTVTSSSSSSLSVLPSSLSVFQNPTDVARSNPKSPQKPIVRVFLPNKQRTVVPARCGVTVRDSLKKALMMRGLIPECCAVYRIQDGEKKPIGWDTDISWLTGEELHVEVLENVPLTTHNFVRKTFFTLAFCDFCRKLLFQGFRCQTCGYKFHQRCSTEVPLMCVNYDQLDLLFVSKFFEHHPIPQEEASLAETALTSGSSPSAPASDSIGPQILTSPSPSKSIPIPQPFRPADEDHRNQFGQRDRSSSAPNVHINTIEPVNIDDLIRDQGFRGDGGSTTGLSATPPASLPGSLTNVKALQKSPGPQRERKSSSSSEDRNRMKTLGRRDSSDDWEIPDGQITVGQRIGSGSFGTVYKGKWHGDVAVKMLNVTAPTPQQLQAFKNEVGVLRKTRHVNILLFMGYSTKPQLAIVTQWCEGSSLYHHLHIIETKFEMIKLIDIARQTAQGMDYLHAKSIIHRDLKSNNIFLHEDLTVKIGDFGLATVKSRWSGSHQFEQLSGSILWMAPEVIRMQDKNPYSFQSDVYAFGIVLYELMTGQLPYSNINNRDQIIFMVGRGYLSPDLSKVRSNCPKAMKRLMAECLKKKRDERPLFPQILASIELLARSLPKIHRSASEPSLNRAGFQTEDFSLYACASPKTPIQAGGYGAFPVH

[8] = target: Mast/stem cell growth factor receptor Kit (Homo sapiens) (UniProt P10721); test: Inhibition of KIT (unknown origin) at 50 nM by Z'LYTE screening method relative to control
Mast/stem cell growth factor receptor Kit (Homo sapiens), sequence (P10721 whole entry): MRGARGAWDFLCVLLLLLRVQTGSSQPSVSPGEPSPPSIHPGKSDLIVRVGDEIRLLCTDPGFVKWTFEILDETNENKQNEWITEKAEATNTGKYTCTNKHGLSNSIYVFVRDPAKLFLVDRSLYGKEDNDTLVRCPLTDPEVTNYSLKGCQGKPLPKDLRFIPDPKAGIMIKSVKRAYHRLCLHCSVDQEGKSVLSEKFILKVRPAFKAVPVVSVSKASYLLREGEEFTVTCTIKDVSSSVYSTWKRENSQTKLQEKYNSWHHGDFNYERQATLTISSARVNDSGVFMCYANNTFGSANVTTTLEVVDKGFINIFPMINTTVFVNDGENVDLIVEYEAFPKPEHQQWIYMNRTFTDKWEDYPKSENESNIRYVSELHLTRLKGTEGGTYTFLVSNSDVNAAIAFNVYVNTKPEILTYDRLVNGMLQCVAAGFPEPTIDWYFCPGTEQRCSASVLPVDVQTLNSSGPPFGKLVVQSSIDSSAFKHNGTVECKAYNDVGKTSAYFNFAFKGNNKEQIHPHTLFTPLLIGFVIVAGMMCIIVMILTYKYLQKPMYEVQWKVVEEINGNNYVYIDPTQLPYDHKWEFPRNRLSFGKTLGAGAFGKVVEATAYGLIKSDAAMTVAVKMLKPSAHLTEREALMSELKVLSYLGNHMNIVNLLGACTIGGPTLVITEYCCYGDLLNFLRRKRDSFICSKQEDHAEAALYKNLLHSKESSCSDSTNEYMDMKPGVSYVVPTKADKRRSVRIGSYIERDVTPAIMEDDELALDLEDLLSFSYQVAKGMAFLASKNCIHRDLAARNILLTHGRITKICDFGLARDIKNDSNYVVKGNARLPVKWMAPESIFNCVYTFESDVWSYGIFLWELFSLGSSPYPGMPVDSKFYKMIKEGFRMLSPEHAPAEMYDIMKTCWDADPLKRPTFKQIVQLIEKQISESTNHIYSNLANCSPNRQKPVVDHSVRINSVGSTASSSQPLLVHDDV

[9] = target: 3-phosphoinositide-dependent protein kinase 1 (Homo sapiens) (UniProt O15530); test: Inhibition of PDK1 (unknown origin) at 50 nM by Z'LYTE screening method relative to control
3-phosphoinositide-dependent protein kinase 1 (Homo sapiens), sequence (O15530 whole entry, looked up): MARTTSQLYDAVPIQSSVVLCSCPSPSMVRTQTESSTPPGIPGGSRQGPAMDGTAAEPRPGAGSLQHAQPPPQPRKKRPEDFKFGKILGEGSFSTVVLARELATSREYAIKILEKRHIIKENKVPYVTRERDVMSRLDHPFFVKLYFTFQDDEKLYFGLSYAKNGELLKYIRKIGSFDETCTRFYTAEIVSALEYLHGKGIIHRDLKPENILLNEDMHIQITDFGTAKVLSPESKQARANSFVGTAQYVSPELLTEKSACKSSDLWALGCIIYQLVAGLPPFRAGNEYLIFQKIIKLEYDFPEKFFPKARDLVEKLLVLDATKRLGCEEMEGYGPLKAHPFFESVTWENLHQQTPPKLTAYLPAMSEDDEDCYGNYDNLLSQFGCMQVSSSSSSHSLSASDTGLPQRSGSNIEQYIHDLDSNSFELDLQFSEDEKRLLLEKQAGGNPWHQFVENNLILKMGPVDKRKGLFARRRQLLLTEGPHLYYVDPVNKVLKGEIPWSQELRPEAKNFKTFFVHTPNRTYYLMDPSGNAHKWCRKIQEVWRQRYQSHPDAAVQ

[10] = target: Glycogen synthase kinase-3 beta (Homo sapiens) (UniProt P49841); test: Inhibition of GSK3b (unknown origin) at 50 nM by Z'LYTE screening method relative to control
Glycogen synthase kinase-3 beta (Homo sapiens), sequence (P49841 whole entry, looked up): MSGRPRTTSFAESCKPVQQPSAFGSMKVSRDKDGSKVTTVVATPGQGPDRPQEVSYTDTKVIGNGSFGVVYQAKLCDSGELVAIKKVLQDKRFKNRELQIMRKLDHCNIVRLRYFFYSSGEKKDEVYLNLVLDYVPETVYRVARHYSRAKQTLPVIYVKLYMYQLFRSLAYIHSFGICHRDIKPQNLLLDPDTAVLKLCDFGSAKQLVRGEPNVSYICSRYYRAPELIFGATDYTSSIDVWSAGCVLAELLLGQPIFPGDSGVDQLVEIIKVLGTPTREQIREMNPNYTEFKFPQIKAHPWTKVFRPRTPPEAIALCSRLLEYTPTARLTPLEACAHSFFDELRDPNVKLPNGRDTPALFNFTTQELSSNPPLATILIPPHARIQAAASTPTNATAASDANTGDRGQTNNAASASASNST

[11] = target: cAMP-dependent protein kinase (PKA) (Homo sapiens) (UniProt P22694+P17612+P22612); test: Inhibition of PKA (unknown origin) at 50 nM by Z'LYTE screening method relative to control; type: protein assay
[12] = Toxicity in BALB/c mouse implanted with mouse 4T1 cells assessed as loss of body weight at 10 mg/kg, po administered 3 times a week for 30 days; type: organism-based; details: in vivo, 720 h, time 30 day
4T1 [13] = test: Antitumor activity against mouse 4T1 cells xenografted in BALB/c mouse assessed as tumor growth inhibition at 10 mg/kg, po administered 3 times a week for 30 days; type: functional, organism-based; details: time 30.0 day
4T1 [14] = test: Anti-metastasis activity in mouse 4T1 cells xenografted in BALB/c mouse assessed as lung metastases at 10 mg/kg, po administered 3 times a week for 30 days; type: functional, organism-based; details: time 30.0 day

inhibition [1] | inhibition [2] | inhibition [3] | inhibition [4] | inhibition [5] | inhibition [6] | inhibition [7] | inhibition [8] | inhibition [9] | inhibition [10] | inhibition [11] | Structure (SMILES) | Activity [12] | Activity (4T1 [13]) | Activity (4T1 [14])
0% | 0% | 1% | 16% | 13% | 6% | 10% | 1% | 0% | 10% | 22% | O=c1c2ccccc2[se]n1-c1nc(NC2CCCCC2)c2nc[nH]c2n1 |  |  | 
0% | 0% | 0% | 11% | 7% | 6% | 7% | 1% | 0% | 7% | 12% | O=C1c2ccccc2CN1c1nc(NC2CCCCC2)c2nc[nH]c2n1 | Toxic |  | 

Structure (SMILES) | inhibition [1] | inhibition [2] | inhibition [3] | inhibition [4] | inhibition [5] | inhibition [6] | inhibition [7] | inhibition [8] | inhibition [9] | inhibition [10] | inhibition [11] | Activity [12] | Activity (4T1 [13]) | Activity (4T1 [14])
O=c1c2ccccc2[se]n1-c1nc(N[C@H]2CC[Se]C2)c2nc[nH]c2n1 | 0% | 4% | 5% | 1% | 2% | 9% | 0% | 2% | 0% | 29% | 53% | Non-Toxic | Active | Active
